System: progenerating CD34+ stock cells obtained from human bone marrow
Assay: Cytolysis of CD34+ progenerating stock cells after chemotherapy treatment (SYTOX green)
Assay type: cell-based
Conditions: propolis 0 μg/ml (Control)
Protocol: The objective of the test is to evaluate the effect of the propolis on the cytolysis of progenerating CD34+ stock cells obtained from human bone marrow following the application of chemotherapy treatment (epirubicin and taxotere).
The culture medium that is used is as follows: IMDM, 15 SVF, SCF (50 ng/ml), TPO (50 ng/ml), FK (50 ng/ml).
The test protocol is described below.
On D3: thawing and seeding with 50,000 cells/ml in a flask ([…])
On D0: marking and seeding with 6,000 cells/well in a 96-well plate
Between D0 and D4: • Treatment of cells with a propolis extract (Example 1) between D0 and D3 with the following doses: 0, 0.5, 1, 4, 10 and 20 μg/ml • Treatment of cells with chemotherapy agents (epirubicin at […] and taxotere […]) between D1 and D3
On D5: Marking with 5 nM of SYTOX green, and measurement of cytolysis.
The obtained results that are presented in the table below provide the percentage of CD34+ progenerating stock cells that is cytolyzed on D5.

| SMILES | percentage of CD34+ progenerating stock cells that is cytolyzed on D5 (Epirubicin 4.74.10^6 M D1-D3 alone) [%] | percentage of CD34+ progenerating stock cells that is cytolyzed on D5 (Taxotere 2.80.10^6 M D1-D3 alone) [%] |
| --- | --- | --- |
| COc1cccc2c1C(=O)c1c(O)c3c(c(O)c1C2=O)C[C@@](O)(C(=O)CO)C[C@@H]3O[C@H]1C[C@H](N)[C@@H](O)[C@H](C)O1 [Epirubicin] | 53.93 | – |
| CC(=O)O[C@@]12CO[C@@H]1C[C@H](O)[C@@]1(C)C(=O)[C@H](O)C3=C(C)[C@@H](OC(=O)[C@H](O)[C@@H](NC(=O)OC(C)(C)C)c4ccccc4)C[C@@](O)([C@@H](OC(=O)c4ccccc4)[C@H]21)C3(C)C [Taxotere] | – | 65.47 |

Reference: patent publication US10463700B2, “Use of propolis for combating the side effects of chemotherapy” (POLLENERGIE, priority 2013, dated 2019)
